Assay results from patent US20240287138A1, “CYCLIC PEPTIDES FOR INHIBITING TNF RECEPTOR 1 ACTIVITY” (Merck Sharp & Dohme LLC, priority 2023, published 2024).
Where two headings read alike, the source gives them in different places. Numbered stars: 1 amine (or outer) side, 2 acyl side, 3 side chain; on linkers, the order of the positions; unused ones are H or OH. Bridge positions count the residues as written; N and C are the ends. Square brackets hold non-standard residues; d marks the D form. Peptide text beside a SMILES is read from it. * marks the point of attachment. Trp(βS-Me,7-OMe) = COc1cccc2c([C@H](C)[C@H](N)C(=O)O)c[nH]c12; Phe(4-SO2NH2) = N[C@@H](Cc1ccc(S(N)(=O)=O)cc1)C(=O)O; Phe(2-F,4-COOH) = N[C@@H](Cc1ccc(C(=O)O)cc1F)C(=O)O; Trp(7-CN) = N#Cc1cccc2c(C[C@H](N)C(=O)O)c[nH]c12; Trp(7-Cl) = N[C@@H](Cc1c[nH]c2c(Cl)cccc12)C(=O)O; X15 = C[C@H](c1ccc(O)cc1)[C@H](N[*:1])C(=O)[*:2]; Phe(4-CONH2) = NC(=O)c1ccc(C[C@H](N)C(=O)O)cc1; Phe(4-COOH) = N[C@@H](Cc1ccc(C(=O)O)cc1)C(=O)O; Trp(7-aza) = N[C@@H](Cc1c[nH]c2ncccc12)C(=O)O; dPro(trans-4-F) = O=C(O)[C@H]1C[C@H](F)CN1; Pip(5R-OH) = O=C(O)[C@@H]1CC[C@@H](O)CN1; αMeW = C[C@](N)(Cc1c[nH]c2ccccc12)C(=O)O; X1 = O=C([C@@H]1CC[C@H](N[*:1])C1)[*:2]; 4Pal = N[C@@H](Cc1ccncc1)C(=O)O; NMeE = CN[C@@H](CCC(=O)O)C(=O)O; dHyp = O=C(O)[C@H]1C[C@H](O)CN1; NMeDab = CN[C@@H](CCN)C(=O)O; αMeS = C[C@](N)(CO)C(=O)O; Carboxymethyl = O=C(O)C*; Nle = CCCC[C@H](N)C(=O)O; Sar = CNCC(=O)O

Tests used:
[1] = biological target: T1, human TNFR1 extracellular domain (ECD) protein (Homo sapiens, UniProt P19438); assay: SPR binding affinity to captured human TNFR1 ECD
T1 construct: HRV 3C protease cleavage site (C); 6His (C, cleaved yes); made in house; host or cells: Sf21 insect cells (baculovirus), secreted
T1 sequence (P19438 30-211): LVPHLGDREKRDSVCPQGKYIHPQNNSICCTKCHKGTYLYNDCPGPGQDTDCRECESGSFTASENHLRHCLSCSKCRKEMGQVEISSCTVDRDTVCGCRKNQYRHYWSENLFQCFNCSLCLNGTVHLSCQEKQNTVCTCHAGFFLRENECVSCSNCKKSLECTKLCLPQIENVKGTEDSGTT
Summary of the method: (§1)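 Peptides are tested against captured biotin-tagged human TNFR1 ECD, with parallel TNFR2 ECD binding to check selectivity. Buffer: 10 mM HEPES pH 7.4, 150 mM NaCl, 3 mM EDTA, 0.05% P20, 2% DMSO.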

[2] = biological target: T2, human TNFR2 ECD protein (Homo sapiens, UniProt P20333); assay: SPR off-target binding (selectivity) to human TNFR2 ECD
T2 construct: HRV 3C protease cleavage site (C); 6His (C, cleaved yes); made in house; host or cells: Sf21 insect cells (baculovirus), secreted
T2 sequence (P20333 23-257): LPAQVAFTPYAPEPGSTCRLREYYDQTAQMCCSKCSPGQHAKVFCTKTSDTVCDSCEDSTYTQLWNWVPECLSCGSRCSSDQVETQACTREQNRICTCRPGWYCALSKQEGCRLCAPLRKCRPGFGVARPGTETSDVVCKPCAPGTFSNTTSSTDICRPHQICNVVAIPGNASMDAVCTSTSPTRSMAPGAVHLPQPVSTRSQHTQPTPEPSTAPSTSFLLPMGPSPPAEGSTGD
Summary of the method: as §1

[3] = biological target: T3, TNFα-induced NF-κB signal transduction pathway (TNFR1 signaling) in THP-1 cells (Homo sapiens, UniProt P19438); assay: THP-1 Lucia NF-κB reporter cell assay, inhibition of TNFα-induced NF-κB signaling; format: cell-based
T3 sequence (P19438 30-455): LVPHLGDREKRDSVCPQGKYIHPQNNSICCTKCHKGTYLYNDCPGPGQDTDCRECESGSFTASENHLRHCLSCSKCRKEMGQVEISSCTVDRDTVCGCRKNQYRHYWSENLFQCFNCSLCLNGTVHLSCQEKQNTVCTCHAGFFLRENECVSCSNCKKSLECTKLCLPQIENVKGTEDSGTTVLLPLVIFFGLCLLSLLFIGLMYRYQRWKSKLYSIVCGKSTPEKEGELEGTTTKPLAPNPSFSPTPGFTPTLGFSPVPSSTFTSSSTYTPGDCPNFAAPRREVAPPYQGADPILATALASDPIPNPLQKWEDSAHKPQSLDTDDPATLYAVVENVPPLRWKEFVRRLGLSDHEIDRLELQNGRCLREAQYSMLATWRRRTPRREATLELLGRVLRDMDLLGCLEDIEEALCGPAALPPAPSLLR
Summary of the method: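 Inhibition of TNFR1-driven NF-κB activation was measured as luminescence of secreted reporter luciferase following overnight (16-18 h) stimulation with 10 ng/mL TNFα.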

[4] = THP-1 NF-κB Lucia reporter cells, 10 ng/mL TNFα, 16-18 h, secreted luciferase; read-out: THP-1 IC50

Row | Structure (SMILES) | Kd [1] | Kd [2] | IC50 [3, 4] | IC50 ([3]; read-out: THP-1 IC50; THP-1 NF-κB Lucia reporter cells, 10 ng/mL TNFα, 16-18 h, secreted luciferase)
1 | CCCC[C@@H]1NC(=O)CSC[C@@H](C(N)=O)NC(=O)[C@](C)(Cc2c[nH]c3ccccc23)NC(=O)CN(C)C(=O)[C@H](Cc2ccc(O)cc2)NC(=O)[C@H](Cc2ccc(C(=O)O)cc2)NC(=O)[C@](C)(CO)NC(=O)[C@H](Cc2c[nH]c3c(Cl)cccc23)NC(=O)[C@H](Cc2ccncc2)NC(=O)[C@H](CC(N)=O)NC(=O)[C@H](CCC(=O)O)N(C)C(=O)[C@H](Cc2c[nH]c3ncccc23)NC(=O)[C@H](CCN)N(C)C(=O)[C@H](Cc2ccncc2)NC1=O [SEQ ID NO. 231] ({CH2CO}-[Nle][4Pal][NMeDab][Trp(7-aza)][NMeE]N[4Pal][Trp(7-Cl)][αMeS][Phe(4-COOH)]Y[Sar][αMeW]C-NH2; thioether N-14) | 1.9 nM | > 1000 nM | 6.1 nM | 
2 | CCCC[C@@H]1NC(=O)[C@@H]2CC[C@@H](C2)NC(=O)[C@H]([C@@H](C)c2c[nH]c3c(OC)cccc23)NC(=O)CN(C)C(=O)[C@H](Cc2ccc(C(=O)O)cc2)NC(=O)[C@H](Cc2ccc(C(N)=O)cc2)NC(=O)[C@](C)(CO)NC(=O)[C@H](Cc2c[nH]c3c(Cl)cccc23)NC(=O)[C@H](Cc2ccncc2)NC(=O)[C@H](CC(N)=O)NC(=O)[C@H]2C[C@H](F)CN2C(=O)[C@H](Cc2c[nH]c3ccccc23)NC(=O)[C@@H]2CC[C@@H](O)CN2C(=O)[C@H](Cc2ccncc2)NC1=O [SEQ ID NO. 101] (cyclo([4Pal][Trp(7-Cl)][αMeS][Phe(4-CONH2)][Phe(4-COOH)][Sar][Trp(βS-Me,7-OMe)][X1][Nle][4Pal][Pip(5R-OH)]W[dPro(trans-4-F)]N)) | 0.05 nM | > 1000 nM | 0.9 nM | 
3 | CN1CC(=O)N[C@@H](CC(N)=O)C(=O)N[C@@H](Cc2ccc(O)cc2)C(=O)N[C@@H](Cc2c[nH]c3ccccc23)C(=O)N[C@@H](CO)C(=O)N[C@@H](Cc2ccc(O)cc2)C(=O)N[C@@H](Cc2ccc(O)cc2)C(=O)N(C)CC(=O)N[C@@H](Cc2c[nH]c3ccccc23)C(=O)N[C@H](C(=O)NCC(=O)N[C@@H](CCC(=O)O)C(=O)N[C@@H](CCC(=O)O)C(N)=O)CSCC(=O)N[C@@H](Cc2ccccc2)C(=O)N[C@@H](Cc2ccc(O)cc2)C(=O)N[C@@H](CO)C(=O)N[C@@H](Cc2c[nH]c3ccccc23)C1=O [SEQ ID NO. 289] ({CH2CO}-FYSW[Sar]NYWSYY[Sar]WCGEE-NH2; thioether N-14) | 7.43 nM | > 1000 nM |  | 36.4 nM
4 | CCCC[C@@H]1NC(=O)CSC[C@@H](C(N)=O)NC(=O)[C@H]([C@@H](C)c2c[nH]c3c(OC)cccc23)NC(=O)CN(C)C(=O)[C@H](Cc2ccc(O)cc2)NC(=O)[C@H](Cc2ccc(C(=O)O)cc2)NC(=O)[C@](C)(CO)NC(=O)[C@H](Cc2c[nH]c3c(Cl)cccc23)NC(=O)[C@H](Cc2ccncc2)NC(=O)[C@H](CC(N)=O)NC(=O)[C@H](CCC(=O)O)N(C)C(=O)[C@H](Cc2c[nH]c3ncccc23)NC(=O)[C@H](CO)NC(=O)[C@H]([C@H](C)c2ccc(O)cc2)NC1=O [SEQ ID NO. 243] ({CH2CO}-[Nle][X15]S[Trp(7-aza)][NMeE]N[4Pal][Trp(7-Cl)][αMeS][Phe(4-COOH)]Y[Sar][Trp(βS-Me,7-OMe)]C-NH2; thioether N-14) | 0.06 nM | > 1000 nM | 3.2 nM | 
5 | CCCC[C@@H]1NC(=O)[C@@H]2CC[C@@H](C2)NC(=O)[C@H]([C@@H](C)c2c[nH]c3c(OC)cccc23)NC(=O)CN(C)C(=O)[C@H](Cc2ccc(C(=O)O)cc2F)NC(=O)[C@H](Cc2ccc(S(N)(=O)=O)cc2)NC(=O)[C@](C)(CO)NC(=O)[C@H](Cc2c[nH]c3c(C#N)cccc23)NC(=O)[C@H](Cc2ccc(C(=O)O)cc2F)NC(=O)[C@H](CC(N)=O)NC(=O)[C@H]2C[C@H](OCC(=O)O)CN2C(=O)[C@H](Cc2c[nH]c3ncccc23)NC(=O)[C@@H]2CC[C@@H](O)CN2C(=O)[C@H](Cc2ccncc2)NC1=O [SEQ ID NO. 134] (cyclo([4Pal][Pip(5R-OH)][Trp(7-aza)][dHyp](Carboxymethyl)N[Phe(2-F,4-COOH)][Trp(7-CN)][αMeS][Phe(4-SO2NH2)][Phe(2-F,4-COOH)][Sar][Trp(βS-Me,7-OMe)][X1][Nle])) | 0.05 nM | > 1000 nM | 0.4 nM | 
